The results in this text go back to US20260217706A1, “HETEROCYCLIC COMPOUNDS, PREPARATION METHOD THEREFOR AND USE THEREOF” (GUANGZHOU YUFAN NANTU BIOTECHNOLOGIES CO., LTD, priority 2023, published 2026).

One assay deals with CBL-B protein (Homo sapiens, UniProt Q13191). The assay can be described thus: CBL-B binding experiment (Streptavidin-Tb cryptate / Ligand L1 displacement). The settings on record: 8 nM CBL-B protein, 25° C., 60 minutes; Ki=Relative IC50/2. Put shortly: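 Compounds in a 10-point DMSO series met 8 nM CBL-B protein in HEPES pH 7.5/NaCl/Triton/TCEP/BSA buffer at 25° C. for 60 min. A further 60 min at room temperature preceded the luminescence read, normalised to no-protein and DMSO wells. Ki was taken as relative IC50 divided by 2.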

For assay [1], the system named is anti-CD3 activated human PBMCs. The assay can be described thus: Effect of compounds on the level of IL-2 secretion by anti-CD3 activated human PBMCs (IL-2 ELISA). It is filed as cell-based. The settings on record: compound concentration at which fold change in IL-2 = 5; hPBMCs, CD3 antibody 2 μg/mL, 48 h, compound from 3 μM. The method, then:
2. Inoculate the resuspended cells into a 96-well cell culture plate at 200 ul/well of cell suspension, and incubate in a 37° C. cell incubator for 1 h;
3. Adjust the compound concentration with DMSO, starting at a final concentration of 3 μM, and perform a 3-fold dilution sequentially for 10 concentration gradients, with an additional DMSO control well set up; and
4. Adjust the CD3 antibody to an appropriate concentration to achieve a final concentration of 2 μg/mL, mix thoroughly, and incubate in a 37° C. cell incubator for 48h.
5. After 48 h, centrifuge at 1500 rpm for 5 min to collect the supernatant of the culture medium for the human IL-2 ELISA test.
The OD values obtained from the ELISA test are converted into the fold change (FC) in IL-2 concentration. […] The EC50 is calculated using GraphPad Prism. When the fold change=5, the corresponding compound concentration is CFC=5 (in nM).
A general note: In an ELISA, binding on a coated surface is turned into a signal by an enzyme label.

Chain of CBL-B protein (Q13191 whole entry): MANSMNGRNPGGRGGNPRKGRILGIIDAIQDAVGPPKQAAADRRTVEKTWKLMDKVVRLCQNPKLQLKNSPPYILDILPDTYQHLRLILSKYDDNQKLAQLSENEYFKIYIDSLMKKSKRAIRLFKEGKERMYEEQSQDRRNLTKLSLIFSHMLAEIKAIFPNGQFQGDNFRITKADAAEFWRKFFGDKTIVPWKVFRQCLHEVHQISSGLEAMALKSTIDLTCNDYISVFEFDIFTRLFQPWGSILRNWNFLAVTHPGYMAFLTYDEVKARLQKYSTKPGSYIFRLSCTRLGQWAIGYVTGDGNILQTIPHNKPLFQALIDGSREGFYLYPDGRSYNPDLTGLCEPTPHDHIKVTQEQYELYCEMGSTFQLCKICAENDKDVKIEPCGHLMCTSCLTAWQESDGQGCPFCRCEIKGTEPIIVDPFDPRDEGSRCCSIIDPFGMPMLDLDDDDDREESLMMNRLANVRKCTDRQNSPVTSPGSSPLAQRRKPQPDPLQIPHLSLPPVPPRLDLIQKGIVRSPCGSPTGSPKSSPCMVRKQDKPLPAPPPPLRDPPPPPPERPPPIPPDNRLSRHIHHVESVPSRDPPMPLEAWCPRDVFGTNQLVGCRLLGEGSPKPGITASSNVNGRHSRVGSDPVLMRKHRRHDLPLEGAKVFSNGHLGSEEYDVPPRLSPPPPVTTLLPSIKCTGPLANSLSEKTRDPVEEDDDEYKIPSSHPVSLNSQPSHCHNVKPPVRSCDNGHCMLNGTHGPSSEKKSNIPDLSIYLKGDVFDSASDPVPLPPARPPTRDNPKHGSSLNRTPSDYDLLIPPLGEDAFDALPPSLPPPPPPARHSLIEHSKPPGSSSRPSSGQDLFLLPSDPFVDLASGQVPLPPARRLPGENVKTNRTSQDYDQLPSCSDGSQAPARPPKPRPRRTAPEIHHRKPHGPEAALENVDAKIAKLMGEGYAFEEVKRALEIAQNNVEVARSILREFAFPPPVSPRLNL

As to `C[C@H]1CCCN(Cc2cc3c(C4CC4)cn(-c4cccc(C5(Cc6nncn6C)CCC5)c4)c(=O)c3[nH]2)C1` [Compound T010, 4-cyclopropyl-2-[[(3S)-3-methyl-1-piperidyl]methyl]-6-[3-[1-[(4-methyl-1,2,4-triazol-3-yl)methyl]cyclobutyl]phenyl]-1H-pyrrolo[2,3-c]pyridin-7-one], the Ki – broadly, a dissociation constant, usually derived from enzyme kinetics or from competition with a known ligand – at CBL-B protein is < 50 nM. Further, the “IL-2 CFC=5/nM” value in assay [1] is given as <500 nM.

As for `CO[C@H]1C[C@@](c2cccc(-n3cc(C(F)(F)F)c4cc(CN5CC6CCC(C6)C5)[nH]c4c3=O)c2)(c2nncn2C)C1` [Compound T145, 2-((3-azabicyclo[3.2.1]octan-3-yl)methyl)-6-(3-((1s,3s)-3-methoxy-1-(4-methyl-4H-1,2,4-triazol-3-yl)cyclobutyl)phenyl)-4-(trifluoromethyl)-1,6-dihydro-7H-pyrrolo[2,3-c]pyridin-7-one], the Ki on CBL-B protein is < 50 nM. The “IL-2 CFC=5/nM” value in assay [1] was <500 nM.

As to `CC=C1CC(c2cccc(-n3cc(C(F)(F)F)c4cc(CN5CCC[C@H](C)C5)[nH]c4c3=O)c2)(c2nncn2C)C1` (stereo partly drawn) [Compound T085, 6-[3-[3-ethylidene-1-(4-methyl-1,2,4-triazol-3-yl)cyclobutyl]phenyl]-2-[[(3S)-3-methyl-1-piperidyl]methyl]-4-(trifluoromethyl)-1H-pyrrolo[2,3-c]pyridin-7-one], the Ki at CBL-B protein was < 50 nM. In addition, in assay [1], the “IL-2 CFC=5/nM” value is <500 nM.

With `CCCN(Cc1cc2c(C(F)(F)F)cn(-c3cccc(C4(c5nncn5C)CCC4)c3)c(=O)c2[nH]1)C(C)C` [Compound T042, 2-[[isopropyl(propyl)amino]methyl]-6-[3-[1-(4-methyl-1,2,4-triazol-3-yl)cyclobutyl]phenyl]-4-(trifluoromethyl)-1H-pyrrolo[2,3-c]pyridin-7-one], the Ki on CBL-B protein is < 50 nM. The “IL-2 CFC=5/nM” value in assay [1] was <500 nM.

For `Cn1cnnc1[C@]1(c2cccc(-n3cc(C(F)(F)F)c4cc(CN5CCC[C@H]6C[C@H]65)[nH]c4c3=O)c2)C[C@H](C)C1` [Compound T055, 2-(((1R,6S)-2-azabicyclo [4.1.0]heptan-2-yl)methyl)-6-(3-((1s,3S)-3-methyl-1-(4-methyl-4H-1,2,4-triazol-3-yl)cyclobutyl)phenyl)-4-(trifluoromethyl)-1,6-dihydro-7H-pyrrolo[2,3-c]pyridin-7-one], the Ki at CBL-B protein is < 50 nM. Moreover, the “IL-2 CFC=5/nM” value in assay [1] is on record as <500 nM.

Take `CCN(Cc1cc2c(C(F)(F)F)cn(-c3cccc([C@]4(c5nncn5C)C[C@@H](OC)C4)c3)c(=O)c2[nH]1)C(C)C` [Compound T192]: the Ki at CBL-B protein is < 50 nM. Besides, the “IL-2 CFC=5/nM” value in assay [1] was <500 nM.

As for `C[C@H]1CCCN(Cc2cc3c(C(F)(F)F)cn(-c4cccc([C@]5(c6nncn6C)C[C@@H](F)C5)c4)c(=O)c3[nH]2)C1` [Compound T071, 6-[3-[3-fluoro-1-(4-methyl-1,2,4-triazol-3-yl)cyclobutyl]phenyl]-2-[[(3S)-3-methyl-1-piperidyl]methyl]-4-(trifluoromethyl)-1-H-pyrrolo[2,3-c]pyridin-7-one], the Ki on CBL-B protein was < 50 nM. For the same compound, the “IL-2 CFC=5/nM” value in assay [1] was <500 nM.

With `CCN(CC)Cc1cc2c(C(F)(F)F)cn(-c3cccc([C@]4(c5nncn5C)C[C@@H](C)C4)c3)c(=O)c2[nH]1` [Compound T018, 2-((diethylamino)methyl)-6-(3-((1s,3s)-3-methyl-1-(4-methyl-4H-1,2,4-triazol-3-yl)cyclobutyl)phenyl)-4-(trifluoromethyl)-1,6-dihydro-7H-pyrrolo[2,3-c]pyridin-7-one], the Ki on CBL-B protein is < 50 nM. Further, in assay [1], the “IL-2 CFC=5/nM” value is listed as <500 nM.

`CCN(Cc1cc2c(C(F)(F)F)cn(-c3cccc(C4(c5nncn5C)CCC4)c3)c(=O)c2[nH]1)C(C)C` [Compound T019, 2-[[ethyl(isopropyl)amino]methyl]-6-[3-[1-(4-methyl-1,2,4-triazol-3-yl)cyclobutyl]phenyl]-4-(trifluoromethyl)-1H-pyrrolo[2,3-c]pyridin-7-one]: the Ki at CBL-B protein is < 50 nM. Moreover, the “IL-2 CFC=5/nM” value in assay [1] is listed as <500 nM.

As to `Cn1cnnc1C1(c2cccc(-n3cc(C(F)(F)F)c4cc(CNCCOC(F)(F)F)[nH]c4c3=O)c2)CCC1` [Compound T096, 6-[3-[1-(4-methyl-1,2,4-triazol-3-yl)cyclobutyl]phenyl]-2-[[2-(trifluoromethoxy)ethylamino]methyl]-4-(trifluoromethyl)-1H-pyrrolo[2,3-c]pyridin-7-one], the Ki at CBL-B protein is < 50 nM. Besides, the “IL-2 CFC=5/nM” value in assay [1] is given as <500 nM.

Consider `C[C@H]1CCCN(Cc2cc3c(C(F)(F)F)cn(-c4cccc([C@H](c5nncn5C)C5CCC5)c4)c(=O)c3[nH]2)C1` [Compound T060, 6-(3-((R)-cyclobutyl (4-methyl-4H-1,2,4-triazol-3-yl)methyl)phenyl)-2-(((S)-3-methylpiperidin-1-yl)methyl)-4-(trifluoromethyl)-1,6-dihydro-7H-pyrrolo[2,3-c]pyridin-7-one], for which the inhibitory constant (Ki) at CBL-B protein was < 50 nM. For the same compound, the “IL-2 CFC=5/nM” value in assay [1] is on record as <500 nM.

In the case of `Cn1cnnc1C1(c2cccc(-n3cc(C(F)(F)F)c4cc(CN5C[C@H]6CCCC[C@H]6C5)[nH]c4c3=O)c2)CCC1` [Compound T086, 2-[[(3aS,7aR)-1,3,3a,4,5,6,7,7a-octahydroisoindol-2-yl]methyl]-6-[3-[1-(4-methyl-1,2,4-triazol-3-yl)cyclobutyl]phenyl]-4-(trifluoromethyl)-1H-pyrrolo[2,3-c]pyridin-7-one], at CBL-B protein, the Ki is < 50 nM. In addition, in assay [1], the “IL-2 CFC=5/nM” value is recorded as <500 nM.

`C[C@H]1CCCN(Cc2cc(C(F)(F)F)c3cn(-c4cccc([C@]5(c6nncn6C)C[C@@H](C)C5)c4)c(=O)n3c2)C1` (racemic) [Compound T140, 2-(3-((1s,3R)-3-methyl-1-(4-methyl-4H-1,2,4-triazol-3-yl)cyclobutyl)phenyl)-6-(((S)-3-methylpiperidin-1-yl)methy 1)-8-(trifluoromethyl)imidazo[1,5-a]pyridin-3(2H)-one]: the Ki at CBL-B protein was < 50 nM. Also, the “IL-2 CFC=5/nM” value in assay [1] was <500 nM.

For `C[C@H]1CCCN(Cc2cc3c(C(F)(F)F)cn(-c4cccc(C5(c6nncn6C)CC(F)(F)C5)c4)c(=O)c3[nH]2)C1` [Compound T109, 6-[3-[3,3-difluoro-1-(4-methyl-1,2,4-triazol-3-yl)cyclobutyl]phenyl]-2-[[(3S)-3-methyl-1-piperidyl]methyl]-4-(trifluoromethyl)-1H-pyrrolo[2,3-c]pyridin-7-one], the Ki at CBL-B protein is < 50 nM. Further, the “IL-2 CFC=5/nM” value in assay [1] is listed as <500 nM.

For the compound `C[C@H]1CCCN(Cc2cc3c(C(F)(F)F)cn(-c4cccc(C5(c6nncn6C)CC6(CC6)C5)c4)c(=O)c3[nH]2)C1` [Compound T084, 2-[[(3S)-3-methyl-1-piperidyl]methyl]-6-[3-[5-(4-methyl-1,2,4-triazol-3-yl)spiro[2.3]hexan-5-yl]phenyl]-4-(trifluoromethyl)-1H-pyrrolo[2,3-c]pyridin-7-one], the Ki on CBL-B protein is < 50 nM. The “IL-2 CFC=5/nM” value in assay [1] is given as <500 nM.

Take `CCC(C)CN(C)Cc1cc2c(C(F)(F)F)cn(-c3cccc(C4(c5nncn5C)CCC4)c3)c(=O)c2[nH]1` (centres unmarked) [Compound T040, 2-[[methyl(2-methylbutyl)amino]methyl]-6-[3-[1-(4-methyl-1,2,4-triazol-3-yl)cyclobutyl]phenyl]-4-(trifluoromethyl)-1H-pyrrolo[2,3-c]pyridin-7-one]: the Ki on CBL-B protein was < 50 nM. Also, the “IL-2 CFC=5/nM” value in assay [1] is reported as <500 nM.
